Experiments:
[1] = molecular target: Protein kinase C alpha type (Homo sapiens, UniProt P17252); assay: Inhibition of PKC alpha (unknown origin) using RRRRRKGSFKRKA as substrate after 15 mins by spectrophotometry in presence of ATP
[2] = molecular target: T1, Protein kinase C theta type (Homo sapiens, UniProt Q04759); assay: Inhibition of full-length recombinant PKC theta (unknown origin) using ERMRPRKRQGSVRRRV as substrate after 60 mins by scintillation counting analysis in presence of [gamma-33P]ATP
T1 sequence (Q04759 whole entry): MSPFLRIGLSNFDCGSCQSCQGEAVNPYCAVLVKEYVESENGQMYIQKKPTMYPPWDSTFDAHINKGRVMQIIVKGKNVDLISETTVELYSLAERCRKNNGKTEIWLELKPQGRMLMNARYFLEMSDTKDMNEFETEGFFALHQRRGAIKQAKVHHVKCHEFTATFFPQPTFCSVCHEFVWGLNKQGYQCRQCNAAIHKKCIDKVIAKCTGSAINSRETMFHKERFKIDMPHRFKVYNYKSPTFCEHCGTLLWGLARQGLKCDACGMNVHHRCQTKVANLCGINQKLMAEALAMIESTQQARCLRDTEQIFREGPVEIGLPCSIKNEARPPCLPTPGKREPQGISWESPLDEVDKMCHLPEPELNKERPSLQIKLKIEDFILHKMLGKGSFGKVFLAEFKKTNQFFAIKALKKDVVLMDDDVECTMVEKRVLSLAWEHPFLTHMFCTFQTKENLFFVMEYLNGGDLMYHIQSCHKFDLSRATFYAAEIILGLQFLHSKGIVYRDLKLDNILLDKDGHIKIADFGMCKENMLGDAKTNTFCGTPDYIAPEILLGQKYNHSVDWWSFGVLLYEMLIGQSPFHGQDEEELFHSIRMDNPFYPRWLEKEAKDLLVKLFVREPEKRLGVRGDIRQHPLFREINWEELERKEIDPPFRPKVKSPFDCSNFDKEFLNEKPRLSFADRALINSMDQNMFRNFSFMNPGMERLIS

[3] = molecular target: T1, Protein kinase C theta type; assay: Inhibition of PKC-theta in human PBMC cells assessed as inhibition of IL-2 after 24 hrs by bead-based FLISA assay; format: cell-based
[4] = molecular target: Protein kinase C delta type (Homo sapiens, UniProt Q05655); assay: Inhibition of PKC delta (unknown origin) using ERMRPRKRQGSVRRRV as substrate after 15 mins by spectrophotometry in presence of ATP
Chain of Protein kinase C delta type (Q05655 whole entry): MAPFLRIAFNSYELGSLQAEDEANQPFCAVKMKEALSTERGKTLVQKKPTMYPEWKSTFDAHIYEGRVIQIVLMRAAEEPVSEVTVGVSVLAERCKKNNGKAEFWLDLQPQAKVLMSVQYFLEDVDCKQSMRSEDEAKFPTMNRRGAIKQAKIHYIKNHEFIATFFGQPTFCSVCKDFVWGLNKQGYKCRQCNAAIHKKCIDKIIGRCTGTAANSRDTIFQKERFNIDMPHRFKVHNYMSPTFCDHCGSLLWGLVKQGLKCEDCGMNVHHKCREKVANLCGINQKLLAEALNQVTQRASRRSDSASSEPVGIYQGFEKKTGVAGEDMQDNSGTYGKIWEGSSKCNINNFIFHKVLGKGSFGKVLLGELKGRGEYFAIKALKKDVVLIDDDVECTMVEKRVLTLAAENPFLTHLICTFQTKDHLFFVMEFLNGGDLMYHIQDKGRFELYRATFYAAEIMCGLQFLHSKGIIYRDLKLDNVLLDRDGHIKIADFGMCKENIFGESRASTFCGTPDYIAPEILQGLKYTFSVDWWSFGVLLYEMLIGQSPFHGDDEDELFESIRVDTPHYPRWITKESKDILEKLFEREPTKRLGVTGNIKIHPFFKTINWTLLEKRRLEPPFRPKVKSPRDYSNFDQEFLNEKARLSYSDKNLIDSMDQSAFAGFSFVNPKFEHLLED

Blood = assay: Inhibition of PKC theta in human whole blood assessed as IL-2 level after 1 hr by ELISA; format: functional, tissue-based
[5] = Oral bioavailability in rat at 10 mg/kg; format: ADME, organism-based; settings: in vivo
[6] = Half life in rat at 3 mg/kg, iv and 10 mg/kg, po; format: ADME, organism-based; settings: in vivo
[7] = Clearance in rat at 3 mg/kg, iv and 10 mg/kg, po; format: ADME, organism-based; settings: in vivo
[8] = molecular target: T2, Protein kinase C beta type (Homo sapiens, UniProt P05771); assay: Inhibition of PKC beta2 (unknown origin)
T2 sequence (P05771 whole entry): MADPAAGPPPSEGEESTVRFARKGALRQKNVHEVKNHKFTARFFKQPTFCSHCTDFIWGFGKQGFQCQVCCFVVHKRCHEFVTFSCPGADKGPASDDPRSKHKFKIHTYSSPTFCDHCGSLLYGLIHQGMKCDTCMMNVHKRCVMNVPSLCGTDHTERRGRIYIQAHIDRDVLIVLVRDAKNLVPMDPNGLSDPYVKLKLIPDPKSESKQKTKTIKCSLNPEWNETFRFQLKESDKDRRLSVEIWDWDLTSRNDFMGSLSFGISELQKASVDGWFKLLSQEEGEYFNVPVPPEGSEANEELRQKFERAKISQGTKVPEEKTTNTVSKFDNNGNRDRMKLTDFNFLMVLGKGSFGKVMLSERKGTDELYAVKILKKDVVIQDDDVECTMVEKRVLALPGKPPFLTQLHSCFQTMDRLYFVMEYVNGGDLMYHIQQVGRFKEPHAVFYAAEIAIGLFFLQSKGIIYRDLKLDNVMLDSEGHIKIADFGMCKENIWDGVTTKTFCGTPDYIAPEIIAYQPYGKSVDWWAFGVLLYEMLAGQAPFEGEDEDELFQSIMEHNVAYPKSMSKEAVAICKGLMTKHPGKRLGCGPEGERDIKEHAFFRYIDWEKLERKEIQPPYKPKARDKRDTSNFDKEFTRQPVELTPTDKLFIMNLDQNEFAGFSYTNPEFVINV

[9] = molecular target: T2, Protein kinase C beta type; assay: Inhibition of PKC beta1 (unknown origin)
[10] = molecular target: T3, Serine/threonine-protein kinase D1 (Homo sapiens, UniProt Q15139); assay: Inhibition of PKC mu (unknown origin)
T3 sequence (Q15139 whole entry): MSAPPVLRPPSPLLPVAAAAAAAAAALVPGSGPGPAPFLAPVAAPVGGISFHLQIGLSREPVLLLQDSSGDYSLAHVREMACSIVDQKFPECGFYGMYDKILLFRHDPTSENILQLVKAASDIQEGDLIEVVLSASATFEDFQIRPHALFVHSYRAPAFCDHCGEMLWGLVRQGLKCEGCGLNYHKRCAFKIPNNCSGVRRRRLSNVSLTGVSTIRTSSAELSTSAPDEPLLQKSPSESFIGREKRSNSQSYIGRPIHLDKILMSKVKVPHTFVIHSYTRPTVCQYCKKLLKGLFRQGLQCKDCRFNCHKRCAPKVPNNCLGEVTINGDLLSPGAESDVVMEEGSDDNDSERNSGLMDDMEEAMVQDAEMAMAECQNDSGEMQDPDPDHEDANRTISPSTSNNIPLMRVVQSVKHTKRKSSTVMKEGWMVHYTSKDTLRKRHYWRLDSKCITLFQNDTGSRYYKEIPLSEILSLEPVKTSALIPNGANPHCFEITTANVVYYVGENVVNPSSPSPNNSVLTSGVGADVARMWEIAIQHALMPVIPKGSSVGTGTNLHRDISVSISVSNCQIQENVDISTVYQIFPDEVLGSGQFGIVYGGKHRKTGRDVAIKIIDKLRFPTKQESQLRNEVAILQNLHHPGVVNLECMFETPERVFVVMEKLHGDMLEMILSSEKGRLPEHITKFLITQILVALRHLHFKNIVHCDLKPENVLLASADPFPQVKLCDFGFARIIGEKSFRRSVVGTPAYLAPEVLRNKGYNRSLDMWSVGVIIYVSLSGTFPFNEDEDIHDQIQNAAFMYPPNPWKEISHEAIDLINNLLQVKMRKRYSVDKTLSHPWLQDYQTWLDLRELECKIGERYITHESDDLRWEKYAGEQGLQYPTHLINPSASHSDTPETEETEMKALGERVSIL

[11] = molecular target: Mitogen-activated protein kinase 3 (Homo sapiens, UniProt P27361); assay: Inhibition of Erk-1 (unknown origin)
Chain of Mitogen-activated protein kinase 3 (P27361 whole entry): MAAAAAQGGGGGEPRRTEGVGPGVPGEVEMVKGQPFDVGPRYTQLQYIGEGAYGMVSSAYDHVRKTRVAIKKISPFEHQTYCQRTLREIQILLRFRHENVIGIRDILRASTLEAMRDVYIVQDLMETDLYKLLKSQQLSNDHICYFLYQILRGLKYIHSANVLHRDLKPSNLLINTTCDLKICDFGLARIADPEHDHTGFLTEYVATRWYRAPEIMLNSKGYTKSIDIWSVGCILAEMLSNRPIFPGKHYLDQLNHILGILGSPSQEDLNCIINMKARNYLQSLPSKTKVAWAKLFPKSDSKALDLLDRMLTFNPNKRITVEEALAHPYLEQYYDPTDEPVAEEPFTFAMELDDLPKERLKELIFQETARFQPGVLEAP

[12] = molecular target: Tyrosine-protein kinase Fyn (Homo sapiens, UniProt P06241); assay: Inhibition of Fyn (unknown origin)
Chain of Tyrosine-protein kinase Fyn (P06241 whole entry): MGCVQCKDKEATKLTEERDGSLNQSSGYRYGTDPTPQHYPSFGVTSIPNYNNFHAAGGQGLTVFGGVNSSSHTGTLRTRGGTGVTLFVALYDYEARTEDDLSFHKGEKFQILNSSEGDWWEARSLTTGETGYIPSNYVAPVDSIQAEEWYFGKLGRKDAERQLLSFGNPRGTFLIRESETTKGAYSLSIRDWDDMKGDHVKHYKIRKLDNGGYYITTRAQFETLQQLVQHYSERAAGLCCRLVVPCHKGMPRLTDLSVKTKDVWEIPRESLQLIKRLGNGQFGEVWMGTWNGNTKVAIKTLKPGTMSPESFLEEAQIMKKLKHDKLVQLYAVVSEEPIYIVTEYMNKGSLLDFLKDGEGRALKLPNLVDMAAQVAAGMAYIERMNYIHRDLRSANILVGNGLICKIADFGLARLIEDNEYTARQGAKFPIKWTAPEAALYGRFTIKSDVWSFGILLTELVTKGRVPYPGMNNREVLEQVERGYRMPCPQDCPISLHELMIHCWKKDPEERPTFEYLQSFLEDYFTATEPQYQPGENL

[13] = molecular target: Protein kinase C gamma type (Homo sapiens, UniProt P05129); assay: Inhibition of PKC gamma (unknown origin)
[14] = Cmax in Balb/c mouse at 25 mg/kg, po; format: ADME, organism-based; design: dose 25 mg/kg, route oral; settings: in vivo
[15] = molecular target: Tyrosine-protein kinase Lyn (Homo sapiens, UniProt P07948); assay: Inhibition of Lyn (unknown origin)
[16] = molecular target: T4, Protein kinase C zeta type (Homo sapiens, UniProt Q05513); assay: Inhibition of PKC zeta (unknown origin)
T4 sequence (Q05513 whole entry): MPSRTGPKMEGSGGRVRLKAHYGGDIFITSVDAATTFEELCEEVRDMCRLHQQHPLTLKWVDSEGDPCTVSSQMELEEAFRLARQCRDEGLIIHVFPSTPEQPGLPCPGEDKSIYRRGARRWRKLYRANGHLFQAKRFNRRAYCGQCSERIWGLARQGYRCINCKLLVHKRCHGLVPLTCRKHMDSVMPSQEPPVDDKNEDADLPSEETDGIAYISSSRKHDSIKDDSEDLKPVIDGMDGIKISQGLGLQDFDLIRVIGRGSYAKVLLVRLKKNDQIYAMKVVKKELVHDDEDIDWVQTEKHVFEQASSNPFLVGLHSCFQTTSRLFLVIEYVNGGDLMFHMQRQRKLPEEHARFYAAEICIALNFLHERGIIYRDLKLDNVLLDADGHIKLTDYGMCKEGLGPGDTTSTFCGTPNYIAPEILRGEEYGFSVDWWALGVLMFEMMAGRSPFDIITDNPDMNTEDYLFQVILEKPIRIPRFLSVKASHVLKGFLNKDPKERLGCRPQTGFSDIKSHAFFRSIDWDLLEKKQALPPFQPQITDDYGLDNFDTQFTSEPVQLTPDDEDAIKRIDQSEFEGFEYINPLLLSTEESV

[17] = molecular target: RAF proto-oncogene serine/threonine-protein kinase (Homo sapiens, UniProt P04049); assay: Inhibition of c-Raf (unknown origin)
Chain of RAF proto-oncogene serine/threonine-protein kinase (P04049 whole entry): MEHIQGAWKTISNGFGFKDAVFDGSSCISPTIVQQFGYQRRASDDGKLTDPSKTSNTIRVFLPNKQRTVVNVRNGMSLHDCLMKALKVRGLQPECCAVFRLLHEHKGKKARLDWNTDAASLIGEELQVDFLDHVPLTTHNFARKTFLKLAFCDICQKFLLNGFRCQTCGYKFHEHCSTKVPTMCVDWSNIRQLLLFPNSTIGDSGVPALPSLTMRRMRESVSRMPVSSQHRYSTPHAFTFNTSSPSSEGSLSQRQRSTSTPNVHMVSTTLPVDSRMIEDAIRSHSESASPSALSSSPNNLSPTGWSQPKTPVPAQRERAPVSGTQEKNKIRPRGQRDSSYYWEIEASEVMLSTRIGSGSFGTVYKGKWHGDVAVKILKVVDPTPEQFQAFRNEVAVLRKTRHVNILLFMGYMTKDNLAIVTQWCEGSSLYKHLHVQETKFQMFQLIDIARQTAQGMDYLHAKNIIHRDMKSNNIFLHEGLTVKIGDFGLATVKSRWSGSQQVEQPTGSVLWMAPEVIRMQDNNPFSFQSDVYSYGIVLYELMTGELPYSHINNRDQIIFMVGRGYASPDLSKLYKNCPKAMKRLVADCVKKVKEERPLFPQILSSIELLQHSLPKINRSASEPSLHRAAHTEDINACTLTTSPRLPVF

[18] = molecular target: T5, Protein kinase C epsilon type (Homo sapiens, UniProt Q02156); assay: Inhibition of PKC epsilon (unknown origin)
T5 sequence (Q02156 whole entry): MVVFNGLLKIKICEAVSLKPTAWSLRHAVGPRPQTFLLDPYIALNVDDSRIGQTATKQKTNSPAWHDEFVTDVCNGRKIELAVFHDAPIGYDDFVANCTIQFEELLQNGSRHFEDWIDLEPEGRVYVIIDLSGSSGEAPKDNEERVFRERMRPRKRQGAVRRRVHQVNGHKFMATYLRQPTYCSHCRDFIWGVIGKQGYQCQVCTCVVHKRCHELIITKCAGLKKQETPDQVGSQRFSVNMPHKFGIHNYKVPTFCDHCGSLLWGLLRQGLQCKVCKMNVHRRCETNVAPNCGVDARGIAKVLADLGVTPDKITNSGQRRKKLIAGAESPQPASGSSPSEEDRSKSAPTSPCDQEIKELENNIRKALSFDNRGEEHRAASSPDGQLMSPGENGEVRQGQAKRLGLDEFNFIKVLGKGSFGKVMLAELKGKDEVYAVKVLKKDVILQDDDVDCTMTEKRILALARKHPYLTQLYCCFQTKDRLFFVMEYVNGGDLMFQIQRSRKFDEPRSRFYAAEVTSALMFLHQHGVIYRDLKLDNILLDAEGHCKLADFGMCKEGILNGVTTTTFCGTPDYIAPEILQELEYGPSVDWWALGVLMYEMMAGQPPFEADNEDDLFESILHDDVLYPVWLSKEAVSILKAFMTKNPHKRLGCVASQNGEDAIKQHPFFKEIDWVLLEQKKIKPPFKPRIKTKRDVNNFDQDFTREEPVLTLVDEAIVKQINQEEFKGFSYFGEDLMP

[19] = molecular target: T6, Tyrosine-protein kinase ZAP-70 (Homo sapiens, UniProt P43403); assay: Inhibition of Zap70 (unknown origin)
T6 sequence (P43403 whole entry): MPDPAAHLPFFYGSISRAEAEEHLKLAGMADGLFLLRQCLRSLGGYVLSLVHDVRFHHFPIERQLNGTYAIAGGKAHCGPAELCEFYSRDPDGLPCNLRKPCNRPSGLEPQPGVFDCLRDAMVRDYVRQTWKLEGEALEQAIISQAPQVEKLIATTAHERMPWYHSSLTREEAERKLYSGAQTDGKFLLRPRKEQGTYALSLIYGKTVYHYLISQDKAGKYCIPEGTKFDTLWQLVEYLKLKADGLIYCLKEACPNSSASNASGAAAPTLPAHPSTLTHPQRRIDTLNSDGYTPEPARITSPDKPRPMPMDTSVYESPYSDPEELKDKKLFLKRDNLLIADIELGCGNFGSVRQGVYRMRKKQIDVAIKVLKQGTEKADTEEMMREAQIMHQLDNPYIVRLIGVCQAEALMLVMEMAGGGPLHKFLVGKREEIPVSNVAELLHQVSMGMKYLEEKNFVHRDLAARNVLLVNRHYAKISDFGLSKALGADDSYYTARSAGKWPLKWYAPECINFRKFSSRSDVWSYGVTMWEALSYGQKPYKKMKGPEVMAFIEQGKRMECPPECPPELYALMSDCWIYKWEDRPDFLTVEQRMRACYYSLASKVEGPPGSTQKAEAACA

[20] = molecular target: Protein kinase C eta type (Homo sapiens, UniProt P24723); assay: Inhibition of PKC eta (unknown origin)
[21] = molecular target: Tyrosine-protein kinase Lck (Homo sapiens, UniProt P06239); assay: Inhibition of Lck (unknown origin)
Chain of Tyrosine-protein kinase Lck (P06239 whole entry): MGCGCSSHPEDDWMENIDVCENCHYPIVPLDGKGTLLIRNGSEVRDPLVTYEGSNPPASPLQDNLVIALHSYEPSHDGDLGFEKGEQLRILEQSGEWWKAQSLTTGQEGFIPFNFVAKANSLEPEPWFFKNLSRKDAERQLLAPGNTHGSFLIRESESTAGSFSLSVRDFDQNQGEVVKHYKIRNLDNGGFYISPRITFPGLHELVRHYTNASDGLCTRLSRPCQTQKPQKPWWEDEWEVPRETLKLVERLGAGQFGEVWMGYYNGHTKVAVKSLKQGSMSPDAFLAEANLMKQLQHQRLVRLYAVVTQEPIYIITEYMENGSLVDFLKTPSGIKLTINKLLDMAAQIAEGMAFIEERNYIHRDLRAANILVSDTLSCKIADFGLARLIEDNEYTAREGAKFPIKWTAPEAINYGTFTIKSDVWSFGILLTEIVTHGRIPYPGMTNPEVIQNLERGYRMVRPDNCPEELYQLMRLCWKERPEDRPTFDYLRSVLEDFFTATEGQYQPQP

[22] = molecular target: T7, Tyrosine-protein kinase ITK/TSK (Homo sapiens, UniProt Q08881); assay: Inhibition of Itk (unknown origin)
T7 sequence (Q08881 whole entry): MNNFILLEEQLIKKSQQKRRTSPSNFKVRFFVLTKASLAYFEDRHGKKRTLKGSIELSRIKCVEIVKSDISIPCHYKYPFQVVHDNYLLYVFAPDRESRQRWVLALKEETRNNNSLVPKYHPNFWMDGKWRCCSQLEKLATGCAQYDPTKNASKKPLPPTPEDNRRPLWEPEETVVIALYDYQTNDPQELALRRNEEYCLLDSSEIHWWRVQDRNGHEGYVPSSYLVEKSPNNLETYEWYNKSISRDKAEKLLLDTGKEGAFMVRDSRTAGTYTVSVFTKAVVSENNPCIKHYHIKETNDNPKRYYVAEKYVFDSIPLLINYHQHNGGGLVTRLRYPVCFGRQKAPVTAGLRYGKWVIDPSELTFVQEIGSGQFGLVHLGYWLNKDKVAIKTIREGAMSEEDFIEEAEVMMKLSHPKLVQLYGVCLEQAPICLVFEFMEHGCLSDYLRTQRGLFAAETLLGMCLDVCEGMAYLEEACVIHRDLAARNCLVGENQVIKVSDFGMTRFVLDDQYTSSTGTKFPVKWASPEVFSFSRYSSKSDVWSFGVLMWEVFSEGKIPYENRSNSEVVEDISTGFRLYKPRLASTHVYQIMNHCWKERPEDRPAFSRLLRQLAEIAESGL

Structure (SMILES) | Ki [1] [nM] | Ki [2] [nM] | IC50 [3] [nM] | Ki [4] [nM] | other results
Nc1ncccc1C(=O)c1cccc(N2CCCNCC2)n1 | 428 | – | – | – | –
CC(C)[C@@](C)(O)[C@@H]1CN(c2nc(-c3n[nH]c4ncccc34)c(F)cc2O)CCN1 | 56 | 0.1 | 4 | < 10 | –
CC(C)[C@@](C)(O)[C@@H]1CN(c2nc(-c3n[nH]c4ncccc34)c(F)cc2C#N)CCN1 | > 1250 | – | – | – | –
CC(C)[C@@](C)(O)[C@@H]1CN(c2nc(-c3n[nH]c4ncccc34)c(F)cc2CO)CCN1 | 205 | 0.1 | 1 | < 10 | –
CC(C)[C@@](C)(O)[C@@H]1CN(c2nc(-c3n[nH]c4ncccc34)c(F)cc2F)CCN1 | 198 | 0.1 | 2 | 18 | IC50 (Blood): 80 nM; bioavailability [5]: 30%; half-life [6]: 1.7 h; clearance [7]: 9.5 mL/min/kg
CC(C)[C@@](C)(O)[C@@H]1CN(c2nc(-c3n[nH]c4ncccc34)c(F)cc2Cl)CCN1 | 356 | 0.08 | 11 | 16 | Ki [8]: 393 nM; Ki [9]: 15 nM; Ki [10]: 2420 nM; IC50 (Blood): 70 nM; bioavailability [5]: 65%; Ki [11]: > 1000 nM; Ki [12]: > 1000 nM; Ki [13]: 725 nM; Cmax [14]: 700 ng/mL; Ki [15]: > 1000 nM; Ki [16]: > 5000 nM; half-life [6]: 4.7 h; Ki [17]: > 1000 nM; Ki [18]: 1 nM; clearance [7]: 7 mL/min/kg; Ki [19]: > 1000 nM; Ki [20]: 3.5 nM; Ki [21]: > 1000 nM; Ki [22]: > 1000 nM
CC(C)C[C@H]1CN(c2ccc(F)c(-c3n[nH]c4ncccc34)n2)CCN1 | – | – | – | 358 | –
CC(C)C[C@H]1CN(c2ccc(F)c(-c3n[nH]c4ncccc34)n2)C[C@@H](C)N1 | – | 5 | – | 130 | –
CC(C)C[C@H]1CN(c2ccc(F)c(-c3n[nH]c4ncccc34)n2)C[C@H](C)N1 | – | > 700 | – | > 1250 | –
CC(C)[C@@](C)(O)[C@@H]1CN(c2ccc(F)c(-c3n[nH]c4ncccc34)n2)CCN1 | 549 | – | – | 57 | IC50 (Blood): 200 nM; bioavailability [5]: 36%; half-life [6]: 2.6 h; clearance [7]: 39 mL/min/kg
CC(C)[C@](C)(O)[C@H]1CN(c2ccc(F)c(-c3n[nH]c4ncccc34)n2)CCN1 | – | – | – | > 1250 | –
CC(C)[C@](C)(O)[C@@H]1CN(c2ccc(F)c(-c3n[nH]c4ncccc34)n2)CCN1 | – | – | – | 120 | –
CC(C)[C@@](C)(O)[C@H]1CN(c2ccc(F)c(-c3n[nH]c4ncccc34)n2)CCN1 | – | – | – | > 1250 | –
CC(C)[C@@](C)(O)[C@@H]1CN(c2ccc(Cl)c(-c3n[nH]c4ncccc34)n2)CCN1 | 1240 | 21 | 170 | 547 | –
c1cc(-c2n[nH]c3ncccc23)nc(N2CCNCC2)c1 | 1230 | – | – | – | –
Fc1ccc(N2CCNCC2)nc1-c1n[nH]c2ncccc12 | > 1250 | 60 | – | 722 | –
CC(C)C[C@@H]1CN(c2ccc(F)c(-c3n[nH]c4ncccc34)n2)CCN1 | – | – | – | 792 | –
CC(C)[C@@](C)(O)[C@@H]1CN(c2ccc(C(F)(F)F)c(-c3n[nH]c4ncccc34)n2)CCN1 (racemic) | > 1250 | 20 | 420 | 957 | –
